Laboratory results as given in patent publication US8143421B2, “Broadspectrum substituted benzimidazole sulfonamide HIV protease inhibitors” (priority 2002, dated 2012).
Like-named read-outs stand apart in the source and are kept apart here.

Assays:
[1] = Oral availability in the rat, serum concentration; format: in vivo
Description: The compounds are formulated as a 20 mg/ml solution or suspension in DMSO, PEG400 or cyclodextin 40% in water. For most experiments in the rat (male and female rats), three dosing groups are formed: 1/single intraperitoneal (IP) dose at 20 mg/kg using DMSO formulation; 2/single oral dose at 20 mg/kg using […] oral dose at 20 mg/kg using PEG400 formulation. Blood is sampled at regular time intervals after dosing and drug concentrations in the serum are determined using a LC-MS bioanalytical method. Serum concentrations are expressed in […]. Serum concentration at 30 minutes (30′) and at 3 hours (180′) can be determined as these values reflect the extent of absorption (30′) and the speed of elimination (180′). The rat serum concentration at 30 min and 180 min following IP administration of 20 mg/kg of compound 18 are 2012 ng/ml and 190 ng/ml respectively. The rat serum concentration at 30 min and 180 min following oral administration of 20 mg/kg as a DMSO formulation of compound 18 are 148 ng/ml and 44 ng/ml respectively; whereas in PEG400 said concentrations are respectively 475 ng/ml and 63 ng/ml.

mutant B = test: Antiviral spectrum, fold resistance towards mutant B; format: cell-based; conditions: FR=IC50(mutant strain)/IC50(HIV-1 strain LAI)
Description: (§1) Because of the increasing emergence of drug resistant HIV strains, the present compounds were tested for their potency against clinically isolated HIV strains harboring several mutations. These mutations are associated with resistance to protease inhibitors and result in viruses that show various degrees of phenotypic cross-resistance to the currently commercially available drugs such as for instance saquinavir, ritonavir, nelfinavir, indinavir and amprenavir. The viral strains R13025, R13027, R13028, R13029, R13034, R13080, T13127 and R13363 contained mutations as indicated below in Table 3.

mutant C = test: Antiviral spectrum, fold resistance towards mutant C; format: cell-based; conditions: FR=IC50(mutant strain)/IC50(HIV-1 strain LAI)
Description: as §1

mutant G = test: Antiviral spectrum, fold resistance towards mutant G; format: cell-based; conditions: FR=IC50(mutant strain)/IC50(HIV-1 strain LAI)
Description: as §1

in vitro = conditions: human
mutant D = test: Antiviral spectrum, fold resistance towards mutant D; format: cell-based; conditions: FR=IC50(mutant strain)/IC50(HIV-1 strain LAI)
Description: as §1

HIV-1 strain LAI = test: Cellular anti-HIV assay, MT4 cells, MTT readout, wild type HIV-1 strain LAI; format: cell-based
Description: The compounds of the present invention were examined for anti-viral activity in a cellular assay. […] The cellular assay was performed according to the following procedure.

mutant F = test: Antiviral spectrum, fold resistance towards mutant F; format: cell-based; conditions: FR=IC50(mutant strain)/IC50(HIV-1 strain LAI)
Description: as §1

mutant E = format: cell-based; conditions: FR=IC50(mutant strain)/IC50(HIV-1 strain LAI)
mutant A = format: cell-based; conditions: FR=IC50(mutant strain)/IC50(HIV-1 strain LAI)
mutant H = test: Antiviral spectrum, fold resistance towards mutant H; format: cell-based; conditions: FR=IC50(mutant strain)/IC50(HIV-1 strain LAI)
mock-infected MT4 cells = test: Toxicity on mock-infected MT4 cells (CC50)
[2] = Human immunodeficiency virus 1, 120 h, Table 1, MT4 cells, five days, HIV-1 strain LAI, read-out: pIC50 (LAI) (converted)
[3] = Human immunodeficiency virus 1, MT4, Table 4, wild type HIV-LAI strain, read-out: WT (pIC50 against wild type HIV-LAI strain) (converted)
[4] = pCC50 value as determined with mock transfected cells
[5] = Table 1, MT4 cells, five days, HIV-1 strain LAI
[6] = Table 4, wild type HIV-LAI strain

Compound | FR towards mutant B (mutant B) | FR towards mutant C (mutant C) | FR towards mutant G (mutant G) | CC50 at 5 days (in vitro) [nM] | FR towards mutant D (mutant D) | IC50 (HIV-1 strain LAI; [2]) [nM] | IC50 (HIV-1 strain LAI; [3]) [nM] | FR towards mutant F (mutant F) | FR towards mutant E (mutant E) | FR value towards mutant A (mutant A) | Tox (pCC50) (mock-infected MT4 cells; [4]) | pIC50 (LAI) (HIV-1 strain LAI; [5]) | WT (pIC50 against wild type HIV-LAI strain) (HIV-1 strain LAI; [6]) | other results
CC(C)CN(CC(O)C(Cc1ccccc1)NC(=O)OC1COC2OCCC12)S(=O)(=O)c1ccc2ncn(C)c2c1 (stereo not shown) [Compound 18] | – | – | – | – | – | – | – | – | – | – | – | – | – | rat serum concentration at 30 min ([1]; IP administration of 20 mg/kg, 30 min): 2012 ng/mL; rat serum concentration at 180 min ([1]; IP administration of 20 mg/kg, 180 min): 190 ng/mL; rat serum concentration at 30 min ([1]; oral administration of 20 mg/kg as a DMSO formulation, 30 min): 148 ng/mL; rat serum concentration at 180 min ([1]; oral administration of 20 mg/kg as a DMSO formulation, 180 min): 44 ng/mL; rat serum concentration at 30 min ([1]; oral administration of 20 mg/kg in PEG400, 30 min): 475 ng/mL; rat serum concentration at 180 min ([1]; oral administration of 20 mg/kg in PEG400, 180 min): 63 ng/mL
CC(=O)Nc1nc2ccc(S(=O)(=O)N(CC(C)C)C[C@@H](O)[C@H](Cc3ccccc3)NC(=O)COc3c(C)cccc3C)cc2[nH]1 [Compound 9, [(1S,2R)-3-[[[2-(acetylamino)benzimidazol-5-yl]sulfonyl](2-methyl-propyl)amino]-2-hydroxy-1-(phenylmethyl)propyl]-(2,6-dimethylphenoxy)acetamide] | 1.3 | 4.4 | 107 | > 100000 | 2.4 | 3.98 | 3.98 | 14 | 2.8 | 4.3 | – | – | – | –
Cc1nc2ccc(S(=O)(=O)N(CC(C)C)C[C@@H](O)[C@H](Cc3ccccc3)NC(=O)O[C@H]3CO[C@H]4OCC[C@H]43)cc2n1Cc1ccccc1 [Compound 2, [(1S,2R)-2-hydroxy-3-[[[[2-methyl-1-(phenylmethyl)]benzimidazol-6-yl]sulfonyl]-(2-methylpropyl)amino]-1-(phenylmethyl)propyl]carbamic acid, [(3R,3aS,6aR)-hexahydrofuro[2,3-b]furan-3-yl]ester] | 6.3 | 1.9 | – | 63100 | 6.3 | 1 | 1 | 162 | 2.9 | 32 | – | – | – | FR towards mutant H (mutant H): 89
CC(C)CN(C[C@@H](O)[C@H](Cc1ccccc1)NC(=O)O[C@H]1CO[C@H]2OCC[C@H]21)S(=O)(=O)c1ccc2ncn(Cc3ccccc3)c2c1 [Compound 1, [(1S,2R)-2-hydroxy-3-[(2-methylpropyl)[[1-(phenylmethyl)benzimidazol-6-yl]sulfonyl]amino]-1-(phenylmethyl)-propyl]carbamic acid, [(3R,3aS,6aR)-hexahydrofuro[2,3-b]furan-3-yl]ester] | 3.1 | 1.1 | 275 | 63100 | 1.5 | 0.794 | 0.794 | 40 | 1.6 | 9.3 | – | – | – | FR towards mutant H (mutant H): 33
CC(C)CN(CC(O)C(Cc1ccccc1)NC(=O)OC1COC2OCCC12)S(=O)(=O)c1ccc2ncn(CCc3ccccc3)c2c1 (stereo not shown) [Compound 5] | 1.9 | 0.9 | 110 | – | 1.9 | – | – | 78 | 3.2 | – | 4.1 | 8.7 | 8.7 | FR towards mutant H (mutant H): 49
COC(=O)Nc1nc2ccc(S(=O)(=O)N(CC(C)C)C[C@@H](O)[C@H](Cc3ccccc3)NC(=O)c3ccc([N+](=O)[O-])cc3C)cc2[nH]1 [Compound 11] | 1.0 | 1.5 | 245 | – | 3.5 | – | – | 7.1 | 1.6 | 5.4 | <4 | 8.0 | 8.0 | –
[(1S,2R)-2-hydroxy-3-[[(2-methylbenzimidazol-5-yl)sulfonyl](2-methylpropyl)amino]-1-(phenylmethyl)propyl]-carbamic acid, [(3R,3aS,6aR)-hexahydrofuro[2,3-b]furan-3-yl]ester [Compound 24] | 0.85 | 1.1 | 35 | – | 0.89 | – | – | 4.7 | 0.83 | 2.6 | <4 | 7.3 | 7.3 | –
CC(C)CN(CC(O)C(Cc1ccccc1)NC(=O)OC1COC2OCCC12)S(=O)(=O)c1ccc2nc(CO)[nH]c2c1 (stereo not shown) [Compound 56] | 0.66 | 0.43 | 0.83 | – | 0.18 | – | – | 0.34 | 0.18 | 0.28 | – | 5.7 | 5.7 | Tox (pCC50) (mock-infected MT4 cells): <4
CC(C)CN(C[C@@H](O)[C@H](Cc1ccccc1)NC(=O)OC1COC2OCCC12)S(=O)(=O)c1ccc2nc(NC(=O)NCCN(C)C)[nH]c2c1 (stereo partly shown) [Compound 58] | 1.0 | 1.0 | 1.1 | – | 0.32 | – | – | 1.1 | 0.37 | 1.0 | – | 5.6 | 5.6 | Tox (pCC50) (mock-infected MT4 cells): <4
CC(C)CN(CC(O)C(Cc1ccccc1)NC(=O)OC1COC2OCCC12)S(=O)(=O)c1ccc2nc(NC(=O)OCCN(C)C)[nH]c2c1 (stereo not shown) [Compound 48] | 1.9 | 0.38 | 0.85 | – | 0.35 | – | – | 0.35 | 0.32 | 0.37 | <4 | 6.4 | 6.4 | –
COC(=O)Nc1nc2ccc(S(=O)(=O)N(CC(C)C)C[C@@H](O)[C@H](Cc3ccccc3)NC(=O)COc3c(C)cc(C#N)cc3C)cc2[nH]1 [Compound 12] | 2.1 | 9.5 | 89 | – | 7.9 | – | – | 49 | 9.5 | 5.5 | <4 | 7.8 | 7.8 | –
COC(=O)Nc1nc2ccc(S(=O)(=O)N(CC(C)C)C[C@@H](O)[C@H](Cc3ccccc3)NC(=O)c3ccc(N)cc3C)cc2[nH]1 [Compound 22] | 0.78 | 1.1 | 4.3 | – | 0.71 | – | – | 0.69 | 0.72 | 0.74 | 4.1 | 7.4 | 7.4 | –
COC(=O)Nc1nc2ccc(S(=O)(=O)N(CC(C)C)C[C@@H](O)[C@H](Cc3ccccc3)NC(=O)COc3c(C)cccc3C)cc2[nH]1 [Compound 8, [(1S,2R)-2-hydroxy-3-[[[2-[(methoxycarbonyl)amino]-1H-benzimidazol-5-yl]sulfonyl](2-methylpropyl)amino]-1-(phenylmethyl)propyl]-(2,6-dimethylphenoxy)acetamide] | 2.0 | 1.4 | 89 | > 100000 | 1.9 | 3.16 | 3.16 | 16.2 | 2.3 | 2.1 | – | – | – | –
